The results in this text go back to patent publication US20030113704A1, “Methods for inactivation of pathogens in biological materials” (priority 2000, published 2003).

One experiment relates to Pseudomonas aeruginosa. Nature of the experiment: Bacterial inactivation in leukoreduced PRBC with Erythrosol (Example 5), P. aeruginosa. The settings on record: red cells, 0.2 mM compound, 2 mM glutathione, two hours at RT. The format is cell-based.
Experiment [1] deals with Duck Hepatitis B Virus (DHBV). Nature of the experiment: Viral inactivation in leukoreduced PRBC with Erythrosol (Example 5), DHBV. It is filed as cell-based. The following applies: red cells, 0.1 mM inactivation compound, 3 mM glutathione, two hours at RT.
For a further experiment, the system named is Cell-Free HIV. Nature of the experiment: Viral inactivation in leukoreduced PRBC with Erythrosol (Example 5), cell-free HIV. It is filed as cell-based, Human Immunodeficiency Virus. The settings on record: red cells, 0.2 mM inactivation compound, 3 mM glutathione, two hours at RT.
The subject of a further experiment is Serratia liquifaciens. Nature of the experiment: Bacterial inactivation in leukoreduced PRBC with Erythrosol (Example 5), S. liquifaciens. The format is cell-based. The following applies: red cells, 0.2 mM compound, 2 mM glutathione, two hours at RT.
The test system of another experiment is Staphylococcus aureus. Nature of the experiment: Bacterial inactivation in leukoreduced PRBC with Erythrosol (Example 5), S. aureus. The format is cell-based. The settings on record: red cells, 0.2 mM compound, 2 mM glutathione, two hours at RT.
For another experiment, the system named is Bluetongue type 11 Virus. Nature of the experiment: Viral inactivation in leukoreduced PRBC with Erythrosol (Example 5), Bluetongue type 11. It is filed as cell-based. The settings on record: red cells, 0.2 mM inactivation compound, 2 mM glutathione, two hours at RT.
Experiment [2] concerns Herpes Simplex Virus (HSV). Nature of the experiment: Viral inactivation in leukoreduced PRBC with Erythrosol (Example 5), HSV. It is filed as cell-based. The settings on record: red cells, 0.003 mM inactivation compound, 3 mM glutathione, two hours at RT.
The subject of the next experiment is Cell-Associated HIV. Nature of the experiment: Viral inactivation in leukoreduced PRBC with Erythrosol (Example 5), cell-associated HIV. The format is cell-based, Human Immunodeficiency Virus. The settings on record: red cells, 0.2 mM inactivation compound, 3 mM glutathione, two hours at RT.
In a further experiment the test system is Listeria monocytogenes. Nature of the experiment: Bacterial inactivation in leukoreduced PRBC with Erythrosol (Example 5), L. monocytogenes. The format is cell-based. The settings on record: red cells, 0.2 mM compound, 2 mM glutathione, two hours at RT.
For a further experiment, the system named is Deinococcus radiodurans. Nature of the experiment: Bacterial inactivation in leukoreduced PRBC with Erythrosol (Example 5), D. radiodurans. The settings on record: red cells, 0.2 mM compound, 2 mM glutathione, two hours at RT. The format is cell-based.
Experiment [3] deals with Staphylococcus epidermidis. Nature of the experiment: Bacterial inactivation in leukoreduced PRBC with Erythrosol (Example 5), S. epidermidis. It is filed as cell-based. The settings on record: red cells, 0.2 mM compound, 2 mM glutathione, two hours at RT.
Another experiment deals with Salmonella choleraesuis. Nature of the experiment: Bacterial inactivation in leukoreduced PRBC with Erythrosol (Example 5), S. choleraesuis. The format is cell-based. The settings on record: red cells, 0.2 mM compound, 2 mM glutathione, two hours at RT.
In another experiment the test system is Yersinia enterocolitica. Nature of the experiment: Bacterial inactivation in leukoreduced PRBC with Erythrosol (Example 5), Y. enterocolitica. It is filed as cell-based. The following applies: red cells, 0.2 mM compound, 2 mM glutathione, two hours at RT.
A further experiment deals with Serratia marcescens. Nature of the experiment: Bacterial inactivation in leukoreduced PRBC with Erythrosol (Example 5), S. marcescens. The settings on record: red cells, 0.2 mM compound, 2 mM glutathione, two hours at RT. It is filed as cell-based.
For experiment [4], the system named is Bovine Viral Diarrhea Virus (BVDV). Nature of the experiment: Viral inactivation in leukoreduced PRBC with Erythrosol (Example 5), BVDV. It is filed as cell-based. The settings on record: red cells, 0.1 mM inactivation compound, 1 mM glutathione, two hours at RT.
Experiment [5] relates to Vesicular Stomatitis Virus type Indiana (VSIV). The format is cell-based.
The test system of experiment [6] is Respiratory Synctial Virus (RSV). Nature of the experiment: Viral inactivation in leukoreduced PRBC with Erythrosol (Example 5), RSV. It is filed as cell-based. The settings on record: red cells, 0.2 mM inactivation compound, 2 mM glutathione, two hours at RT.
Another experiment has as its system Bacilus subtilis. Nature of the experiment: Bacterial inactivation in leukoreduced PRBC with Erythrosol (Example 5), B. subtilis. It is filed as cell-based. The following applies: red cells, 0.2 mM compound, 2 mM glutathione, two hours at RT.
The test system of the next experiment is Escherichia coli K12. Nature of the experiment: Bacterial inactivation in leukoreduced PRBC with Erythrosol (Example 5), E. coli K12. The settings on record: red cells, 0.2 mM compound, 2 mM glutathione, two hours at RT. It is filed as cell-based.

As for `O=C(CCNc1c2ccccc2nc2ccccc12)OCCN(CCCl)CCCl` [β-alanine, N-(acridin-9-yl), 2-[bis(2-chloroethyl)amino]ethyl ester], the “Log inactivation Pseudomonas aeruginosa” value with Pseudomonas aeruginosa worked out at 4.5 log. Moreover, the “Log inactivation DHBV” value in experiment [1] is listed as more than 6.3 log. Further, in the experiment with Cell-Free HIV, the “Log inactivation Cell-Free HIV” value is more than 6.5 log. In addition, the “Log inactivation Serratia liquifaciens” value in the experiment on Serratia liquifaciens was found to be 3.8 log. In addition, the “Log inactivation Staphylococcus aureus” value with Staphylococcus aureus is more than 5.1 log. In the experiment with Bluetongue type 11 Virus, the “Log inactivation Bluetongue type 11” value is 6.0 log. For the same compound, in experiment [2], the “Log inactivation HSV” value is more than 6.0 log. Besides, the “Log inactivation Cell-Associated HIV” value in the experiment on Cell-Associated HIV is listed as more than 6.2 log. Besides, the “Log inactivation Listeria monocytogenes” value in the experiment with Listeria monocytogenes was more than 7.1 log. Besides, the “Log inactivation Deinococcus radiodurans” value in the experiment on Deinococcus radiodurans is reported as more than 6.0 log. For the same compound, the “Log inactivation Staphylococcus epidermidis” value in [3] is on record as more than 6.9 log. Further, the “Log inactivation Salmonella choleraesuis” value in the experiment with Salmonella choleraesuis was 4.8 log. In addition, the “Log inactivation Yersinia enterocolitica” value in the experiment with Yersinia enterocolitica amounted to 7.4 log. Moreover, the “Log inactivation Serratia marcescens” value in the experiment with Serratia marcescens stood at 4.1 log. For the same compound, in experiment [4], the “Log inactivation BVDV” value was more than 7.3 log. Further, the “Log inactivation VSIV” value in experiment [5] was 5.7 log. Besides, in experiment [6], the “Log inactivation RSV” value is given as 5.6 log. Further, the “Log inactivation Bacilus subtilis” value in the experiment with Bacilus subtilis is more than 6.3 log. In the experiment on Escherichia coli K12, the “Log inactivation Eseherichia coli K12” value worked out at 7.4 log.
